Data on 3 compounds can be found in ChEMBL document CHEMBL2074269, “The interaction of n-tetraalkylammonium compounds with a human organic cation transporter, hOCT1” (J Pharmacol Exp Ther, 1999).

What is called IC50 is the point on the concentration scale where inhibition reaches its midpoint. A low value points to inhibition by little substance.

The target of this experiment is T1, Solute carrier family 22 member 1 (Homo sapiens, UniProt O15245).
T1 sequence (O15245 whole entry): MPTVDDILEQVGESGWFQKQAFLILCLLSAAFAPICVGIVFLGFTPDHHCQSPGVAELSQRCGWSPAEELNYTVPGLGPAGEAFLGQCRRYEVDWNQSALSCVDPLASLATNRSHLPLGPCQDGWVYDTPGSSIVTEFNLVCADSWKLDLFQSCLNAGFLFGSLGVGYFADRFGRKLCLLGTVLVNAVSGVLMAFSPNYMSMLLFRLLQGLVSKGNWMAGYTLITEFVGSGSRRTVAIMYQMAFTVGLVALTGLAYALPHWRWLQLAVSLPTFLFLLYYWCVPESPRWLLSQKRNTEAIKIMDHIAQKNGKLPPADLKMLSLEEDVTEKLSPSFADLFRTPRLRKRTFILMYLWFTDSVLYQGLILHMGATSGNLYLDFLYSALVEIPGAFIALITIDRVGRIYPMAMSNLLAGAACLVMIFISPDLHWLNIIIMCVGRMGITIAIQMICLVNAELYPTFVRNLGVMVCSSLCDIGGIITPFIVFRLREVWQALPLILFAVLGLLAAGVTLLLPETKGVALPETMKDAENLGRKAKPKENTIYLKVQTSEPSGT
The experiment is classed as functional, cell-based, HeLa.

`CCCC[N+](CCCC)(CCCC)CCCC` [TETRABUTHYLAMMONIUM] yielded an IC50 of 52 µM. Consider `CCCCCC[N+](CCCCCC)(CCCCCC)CCCCCC` [TETRAHEXYLAMMONIUM], for which half-maximal inhibition (IC50) was put at 3 µM. Under `CCC[N+](CCC)(CCC)CCC` [TETRAPROPYLAMMONIUM] stands 90 µM.
